Experimental data reported in patent US6953788B1, “3-mercaptoacetylamino-1,5-substituted-2-oxo-azepan derivatives useful as inhibitors of matrix metalloproteinase” (Aventis Pharmaceuticals Inc., priority 1996, dated 2005).

Key:
MMP-3 (Stromelysin-1) = target: T1, MMP-3 (Stromelysin-1) (Homo sapiens, UniProt P08254); assay: Determination of inhibition constant (Ki) for MMP-3, fluorogenic substrate; assay type: biochemical; settings: activated MMP-3, 37° C., pH 7.6
T1 construct: The active MMP-3 was obtained by treatment of proMMP-3 with trypsin; endogenous in cells; host or cells: human rheumatoid synovial fibroblasts stimulated with macrophage-conditioned medium (secreted into the culture medium)
T1 sequence (P08254 100-477): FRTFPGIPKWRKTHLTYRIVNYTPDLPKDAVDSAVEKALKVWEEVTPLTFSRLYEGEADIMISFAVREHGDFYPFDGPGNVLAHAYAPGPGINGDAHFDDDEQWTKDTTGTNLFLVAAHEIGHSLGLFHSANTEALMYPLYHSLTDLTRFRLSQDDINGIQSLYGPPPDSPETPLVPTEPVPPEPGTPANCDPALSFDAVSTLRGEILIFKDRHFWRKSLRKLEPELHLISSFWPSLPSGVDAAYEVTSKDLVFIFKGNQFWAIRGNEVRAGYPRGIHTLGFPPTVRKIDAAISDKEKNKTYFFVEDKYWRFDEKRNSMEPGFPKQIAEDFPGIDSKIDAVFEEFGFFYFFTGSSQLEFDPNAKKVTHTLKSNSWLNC
Method: Aliquots of the activated MMP-3 were stored at −20° C.
The activated MMP-3 is assayed using a fluorogenic substrate, Mca-Pro-Leu-Gly-Leu-Dpa-Ala-Arg-NH2, Knight, C. […] The increase in fluorescence due to cleavage of Gly-Leu peptide bond by MMP-3 was monitored with Perkin-Elmer LS50B Fluorimeter (λex328 nm, λem393 nm, excitation slit 2.5, emission slit 10). Substrate and inhibitor stock solutions were made in DMF and 0.1% HCl-DMF, respectively. […] The enzyme (10 μL of 0.2 μM MMP-3 dilution in assay buffer) was added at the last to start the reaction. […] Under these conditions, the measured Ki,app is close to true Ki.
(§1) The Ki for a competitive inhibitor is calculated using: v0/vi=(1+[I]/Ki,app) and Ki=Ki,app/(1+[S]/KM), where v0 is the initial rate in the absence of inhibitor, vi is the initial rate in the presence of inhibitor at the concentration of [I], [S] is the substrate concentration, and Km is the Michaelis constant. If slow binding is observed (i.e. if the approach to the binding equilibrium is slow), the final steady-state rate rather than the initial rate is taken as vi.

[1] = target: T2, MMP-12 (macrophage metalloelastase) (Homo sapiens, UniProt P39900); assay: Determination of inhibition constant (Ki) for MMP-12, fluorogenic substrate; assay type: biochemical; settings: 25C., pH 7.6
T2 construct: made in house
T2 sequence (P39900 106-263 limits assumed): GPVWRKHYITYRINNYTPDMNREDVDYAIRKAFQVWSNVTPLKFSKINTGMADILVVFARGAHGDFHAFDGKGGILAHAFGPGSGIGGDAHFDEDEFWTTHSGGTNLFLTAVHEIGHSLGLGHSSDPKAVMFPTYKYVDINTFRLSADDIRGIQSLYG
Method: as §1

Compound	Ki (MMP-3 (Stromelysin-1)) [nM]	Ki [1] [nM]
CNC(=O)[C@H](Cc1ccccc1)N1CCN(Cc2ccccc2)C[C@H](NC(=O)[C@@H](S)CCCCN2C(=O)c3ccccc3C2=O)C1=O (relative stereo) [IV-1, 2H-Isoindole-2-hexanamide, N-[hexahydro-4-[2-(methylamino)-2-oxo-1-(phenylmethyl)ethyl]-5-oxo-1-(phenylmethyl)-1H-1,4-diazepin-6-yl]-1,3-dihydro-α-mercapto-1,3-dioxo-, [6S-[4(R*), 6R*(R*)]]-]	210	
CNC(=O)C(Cc1ccccc1)N1CCC(c2ccccc2)CC(NC(=O)C(S)CCCCN2C(=O)c3ccccc3C2=O)C1=O (stereo not drawn) [III-1, 2H-Isoindole-2-hexanamide, N-[hexahydro-1-[2-(methylamino)-2-oxo-1-(phenylmethyl)ethyl]-2-oxo-5-phenyl-1H-azepin-3-yl]-1,3-dihydro-α-mercapto-1,3-dioxo-, [3S-[1(R*), 3α, 5β]]-]	73	53
